Measured values: patent US8940769B2, “Biaryl benzoimidazole derivatives and pharmaceutical composition comprising the same” (Daewoong Pharmaceutical Co., Ltd., priority 2006, dated 2015)

Target: T1, human vanilloid receptor VR-1 (hVR1) (Homo sapiens, UniProt Q8NER1)
T1 construct: expressed in transfected cells; host or cells: HEK293 Tet-on cells (hVR1-HEK293), expression induced with doxycycline
Assay: Calcium influx test of vanilloid receptor (capsaicin-induced, Fluo-3/AM, hVR1-HEK293 cells)
Assay type: cell-based
Conditions: calcium influx induced by 1 μM capsaicin, read-out: Inhibitory effect IC50 (nM) on calcium influx
Method: In order to measure an activity of the biaryl benzoimidazole derivative of the invention as an antagonist, a calcium influx test was performed.
An hVR1-HEK293 cell line is a cell line, in which a Human Embryonic Kidney (HEK) 293 Tet-on cell is transformed with a human vanilloid-1 gene (pTRE2hyg-hVR1, 7.8 kb). The cell line can regulate a VR-1 expression, depending on the administration of a tetracycline analogue, doxycycline. At two days before the calcium influx test, the cell line was cultured in media containing doxycycline to induce the VR-1 expression, and then used. First, the hVR1-HEK293 cells were cultured in T75 flasks to have a density of about 80%, and then detached from the bottom of the flasks by using trypsin. The detached cells were centrifuged and collected. Then, the cells were suspended in media containing 1 μg/mL doxycycline, and diluted to have a concentration of 2×10^5 to 4×10^5 cells/mL. 100 μL of the suspended cells were added to each well of 96-well black plate, cultured at 37° C. and 5% CO2 cell incubator for two days, and then used in the calcium influx test.
The compound was dissolved in dimethyl sulfoxide (DMSO), and then used for the calcium influx test.
In order to measure the calcium influx […], the cells were cultured in a solution containing Fluo-3/AM, which is a calcium indicator, at 37° C. for 90 minutes, so as to be permeated by a fluorescent dye. […] 193 μL D-PBS were added to each well, and then the compound was added thereto in various concentrations. To measure an activity as an antagonist, the cells were treated with 1 μM capsaicin to stimulate the calcium influx. The inhibitory effect of the compound when calcium influx was induced by 1 μM capsaicin was measured depending on its concentration using a fluorescence spectrometer, and the obtained data were substituted into a hill equation to analyze the values.
The inhibitory effect on calcium influx was measured with a single concentration of the compounds of the invention (200 nM), and the result thereof are shown in Table 2.

T1 sequence (Q8NER1 whole entry): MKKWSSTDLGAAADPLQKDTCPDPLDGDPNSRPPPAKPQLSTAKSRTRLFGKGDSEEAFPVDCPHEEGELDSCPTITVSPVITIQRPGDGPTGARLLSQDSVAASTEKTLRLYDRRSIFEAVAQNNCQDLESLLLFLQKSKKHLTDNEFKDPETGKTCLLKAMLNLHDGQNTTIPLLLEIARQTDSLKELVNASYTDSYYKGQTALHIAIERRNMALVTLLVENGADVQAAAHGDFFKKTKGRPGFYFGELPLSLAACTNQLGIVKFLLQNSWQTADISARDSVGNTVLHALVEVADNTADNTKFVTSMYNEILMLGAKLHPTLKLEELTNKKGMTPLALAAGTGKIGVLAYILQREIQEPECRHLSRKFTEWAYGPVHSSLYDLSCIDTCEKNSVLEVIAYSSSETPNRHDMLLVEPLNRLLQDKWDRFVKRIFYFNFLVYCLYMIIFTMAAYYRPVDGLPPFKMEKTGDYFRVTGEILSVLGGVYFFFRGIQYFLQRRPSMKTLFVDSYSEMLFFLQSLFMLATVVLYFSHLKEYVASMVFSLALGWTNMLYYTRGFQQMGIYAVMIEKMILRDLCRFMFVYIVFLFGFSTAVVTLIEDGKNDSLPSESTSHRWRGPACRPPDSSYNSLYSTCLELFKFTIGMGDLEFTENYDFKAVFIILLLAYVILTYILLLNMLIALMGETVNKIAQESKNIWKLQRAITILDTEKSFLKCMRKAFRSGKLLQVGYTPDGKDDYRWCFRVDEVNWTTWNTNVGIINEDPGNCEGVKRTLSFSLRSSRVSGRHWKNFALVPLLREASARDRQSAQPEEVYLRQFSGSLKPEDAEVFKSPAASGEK

Row | IC50 | Compound
1 | 319 nM | CC(=O)OCc1cnc(-c2ccc(-c3nc4ccc(C(C)(C)C)cc4[nH]3)cc2)c(Cl)c1 [Compound 54, acetic acid 6-[4-(6-tert-butyl-1H-benzoimidazol-2-yl)-phenyl]-5-chloro-pyridin-3-yl methyl ester]
2 | 129 nM | OCc1cnc(-c2ccc(-c3nc4c(Br)cc(C(F)(F)F)cc4[nH]3)nc2)c(Cl)c1 [Compound 93, [6′-(4-bromo-6-trifluoromethyl-1H-benzoimidazol-2-yl)-3-chloro-[2,3′]bipyridinyl-5-yl]-methanol]
3 | 517 nM | OCc1cnc(-c2ccc(-c3nc4ccc(Br)cc4[nH]3)nc2)c(Cl)c1 [Compound 91, [6′-(6-bromo-1H-benzoimidazol-2-yl)-3-chloro-[2,3′]bipyridinyl-5-yl]-methanol]

Same assay, conditions: single concentration of compound 200 nM, 1 μM capsaicin

Row | Inhibitory effect (%) on calcium influx | Compound
4 | 6.5% | CC(=O)OCc1cnc(-c2ccc(-c3nc4ncc(Br)cc4[nH]3)cc2)c(Cl)c1 [Compound 56, acetic acid 6-[4-(6-bromo-1H-imidazo[4,5-b]pyridin-2-yl)-phenyl]-5-chloro-pyridin-3-yl methyl ester]
5 | 0.9% | CC(=O)OCc1cnc(-c2ccc(-c3nc4ccc(Br)cc4[nH]3)cc2)c(Cl)c1 [Compound 55, acetic acid 6-[4-(6-bromo-1H-benzoimidazol-2-yl)-phenyl]-5-chloro-pyridin-3-yl methyl ester]

Same assay, conditions: single concentration of compound 200 nM, 1 μM capsaicin, read-out: Inhibitory effect (%) on calcium influx

Row | Compound | inhibition at 0.2 µM
6 | O=C(O)c1cnc(-c2ccc(-c3nc4ccc(C(F)(F)F)cc4[nH]3)nc2)c(Cl)c1 [Compound 81, 3-chloro-6′-(6-trifluoromethyl-1H-benzoimidazol-2-yl)-[2,3′]bipyridinyl-5-carboxylic acid] | 9.6%
7 | O=C(O)c1cnc(-c2ccc(-c3nc4ccc(N5CCOCC5)cc4[nH]3)nc2)c(Cl)c1 [Compound 79, 3-chloro-6′-(6-morpholin-4-yl-1H-benzoimidazol-2-yl)-[2,3′]bipyridinyl-5-carboxylic acid] | 3.3%
8 | C=Cc1cnc(-c2ccc(-c3nc4ccc(C(C)(C)C)cc4[nH]3)cc2)c(Cl)c1 [Compound 38, 6-tert-butyl-2-[4-(3-chloro-5-vinyl-pyridin-2-yl)-phenyl]-1H-benzoimidazole] | 11.7%
9 | CC(C)(C)c1ccc2nc(-c3ccc(-c4ncc(C(=O)O)cc4Cl)cn3)[nH]c2c1 [Compound 82, 6′-(6-tert-butyl-1H-benzoimidazol-2-yl)-3-chloro-[2,3′]bipyridinyl-5-carboxylic acid] | 6.7%
10 | CC(=O)OCc1cnc(-c2ccc(-c3nc4ccc(C(C)(C)C)cc4[nH]3)cc2)c(Cl)c1 [Compound 54, acetic acid 6-[4-(6-tert-butyl-1H-benzoimidazol-2-yl)-phenyl]-5-chloro-pyridin-3-yl methyl ester] | 14.6%
11 | CCNC(=O)c1cnc(-c2ccc(-c3nc4ncc(Br)cc4[nH]3)nc2)c(Cl)c1 [Compound 100, 6′-(6-bromo-1H-imidazo[4,5-b]pyridin-2-yl)-3-chloro-[2,3′]bipyridinyl-5-carboxylic acid ethyl amide] | 13%
12 | CN1CCN(c2ccc3nc(-c4ccc(-c5ncc(CO)cc5Cl)cn4)[nH]c3c2)CC1 [Compound 88, {3-chloro-6′-[6-(4-methyl-piperazin-1-yl)-1H-benzoimidazol-2-yl]-[2,3′]bipyridinyl-5-yl}-methanol] | 15.3%
13 | C=Cc1cnc(-c2ccc(-c3nc4ccc(C(F)(F)F)cc4[nH]3)cc2)c(Cl)c1 [Compound 37, 2-[4-(3-chloro-5-vinyl-pyridin-2-yl)-phenyl]-6-trifluoromethyl-1H-benzoimidazole] | 5.3%
14 | CCNC(=O)c1cnc(-c2ccc(-c3nc4ccc(C(C)(C)C)cc4[nH]3)nc2)c(Cl)c1 [Compound 98, 6′-(6-tert-butyl-1H-benzoimidazol-2-yl)-3-chloro-[2,3′]bipyridinyl-5-carboxylic acid ethyl amide] | 13.2%
15 | C=Cc1cnc(-c2ccc(-c3nc4ccc(C(F)(F)F)cc4[nH]3)nc2)c(Cl)c1 [Compound 66, 3-chloro-6′-(6-trifluoromethyl-1H-benzoimidazol-2-yl)-5-vinyl-[2,3′]bipyridinyl] | 0.2%
16 | OCc1cnc(-c2ccc(-c3nc4ccc(Br)cc4[nH]3)nc2)c(Cl)c1 [Compound 91, [6′-(6-bromo-1H-benzoimidazol-2-yl)-3-chloro-[2,3′]bipyridinyl-5-yl]-methanol] | 27.6%
17 | O=C(O)c1cnc(-c2ccc(-c3nc4c(Br)cc(C(F)(F)F)cc4[nH]3)nc2)c(Cl)c1 [Compound 85, 6′-(4-bromo-6-trifluoromethyl-1H-benzoimidazol-2-yl)-3-chloro-[2,3′]bipyridinyl-5-carboxylic acid] | 4.2%

Now from value to compound:

Row | inhibition at 0.2 µM | Compound
18 | 13.3% | CCNC(=O)c1cnc(-c2ccc(-c3nc4ccc(C(F)(F)F)cc4[nH]3)nc2)c(Cl)c1 [Compound 97, 3-chloro-6′-(6-trifluoromethyl-1H-benzoimidazol-2-yl)-[2,3′]bipyridinyl-5-carboxylic acid ethyl amide]
19 | 22.8% | O=C(O)c1cnc(-c2ccc(-c3nc4ccc(Br)cc4[nH]3)nc2)c(Cl)c1 [Compound 83, 6′-(6-bromo-1H-benzoimidazol-2-yl)-3-chloro-[2,3′]bipyridinyl-5-carboxylic acid]
20 | 41% | OCc1cnc(-c2ccc(-c3nc4c(Br)cc(C(F)(F)F)cc4[nH]3)nc2)c(Cl)c1 [Compound 93, [6′-(4-bromo-6-trifluoromethyl-1H-benzoimidazol-2-yl)-3-chloro-[2,3′]bipyridinyl-5-yl]-methanol]
21 | 7% | COC(=O)c1cnc(-c2ccc(-c3nc4ncc(Br)cc4[nH]3)nc2)c(Cl)c1 [Compound 76, 6′-(6-bromo-1H-imidazo[4,5-b]pyridin-2-yl)-3-chloro-[2,3′]bipyridinyl-5-carboxylic acid methyl ester]
22 | 7.2% | O=C(O)c1cnc(-c2ccc(-c3nc4ncc(Br)cc4[nH]3)cc2)c(Cl)c1 [Compound 46, 6-[4-(6-bromo-1H-imidazo[4,5-b]pyridin-2-yl)-phenyl]-5-chloro-nicotinic acid]
23 | -1% | CC(C)(C)c1ccc2nc(-c3ccc(-c4ncc(C(=O)O)cc4Cl)cc3)[nH]c2c1 [Compound 44, 6-[4-(6-tert-butyl-1H-benzoimidazol-2-yl)-phenyl]-5-chloro-nicotinic acid]
24 | 17.5% | CCNC(=O)c1cnc(-c2ccc(-c3nc4ccc(Br)cc4[nH]3)nc2)c(Cl)c1 [Compound 99, 6′-(6-bromo-1H-benzoimidazol-2-yl)-3-chloro-[2,3′]bipyridinyl-5-carboxylic acid ethyl amide]
25 | 11.3% | C=Cc1cnc(-c2ccc(-c3nc4ccc(Cl)cc4[nH]3)nc2)c(Cl)c1 [Compound 69, 3-chloro-6′-(6-chloro-1H-benzoimidazol-2-yl)-5-vinyl-[2,3′]bipyridinyl]
26 | 3.1% | C=Cc1cnc(-c2ccc(-c3nc4ccc(Br)cc4[nH]3)cc2)c(Cl)c1 [Compound 39, 6-bromo-2-[4-(3-chloro-5-vinyl-pyridin-2-yl)-phenyl]-1H-benzoimidazole]
27 | 3.3% | O=C(O)c1cnc(-c2ccc(-c3nc4ccc(Br)cc4[nH]3)cc2)c(Cl)c1 [Compound 45, 6-[4-(6-bromo-1H-benzoimidazol-2-yl)-phenyl]-5-chloro-nicotinic acid]
28 | 13.2% | CCNC(=O)c1cnc(-c2ccc(-c3nc4c(Br)cc(Br)cc4[nH]3)nc2)c(Cl)c1 [Compound 102, 3-chloro-6′-(4,6-dibromo-1H-benzoimidazol-2-yl)-[2,3′]bipyridinyl-5-carboxylic acid ethyl amide]
29 | 6% | OCc1cnc(-c2ccc(-c3nc4c(Br)cc(C(F)(F)F)cc4[nH]3)cc2)c(Cl)c1 [Compound 32, {6-[4-(4-bromo-6-trifluoromethyl-1H-benzoimidazol-2-yl)-phenyl]-5-chloro-pyridin-3-yl}-methanol]
30 | 9.6% | Clc1cc(CBr)cnc1-c1ccc(-c2nc3ccc(Br)cc3[nH]2)cc1 [Compound 36, 6-bromo-2-[4-(5-bromomethyl-3-chloro-pyridin-2-yl)-phenyl]-1H-benzoimidazole]
31 | 20% | COC(=O)c1cnc(-c2ccc(-c3nc4c(Br)cc(C(F)(F)F)cc4[nH]3)cc2)c(Cl)c1 [Compound 52, 6-[4-(4-bromo-6-trifluoromethyl-1H-benzoimidazol-2-yl)-phenyl]-5-chloro-nicotinic acid methyl ester]
32 | -5% | CN1CCN(c2ccc3nc(-c4ccc(-c5ncc(C(=O)O)cc5Cl)cn4)[nH]c3c2)CC1 [Compound 80, 3-chloro-6′-[6-(4-methyl-piperazin-1-yl)-1H-benzoimidazol-2-yl]-[2,3′]bipyridinyl-5-carboxylic acid]
33 | 3.7% | OCc1cnc(-c2ccc(-c3nc4ccc(N5CCOCC5)cc4[nH]3)nc2)c(Cl)c1 [Compound 87, [3-chloro-6′-(6-morpholin-4-yl-1H-benzoimidazol-2-yl)-[2,3′]bipyridinyl-5-yl]-methanol]
34 | 5.7% | O=C(O)c1cnc(-c2ccc(-c3nc4c(Br)cc(C(F)(F)F)cc4[nH]3)cc2)c(Cl)c1 [Compound 47, 6-[4-(4-bromo-6-trifluoromethyl-1H-benzoimidazol-2-yl)-phenyl]-5-chloro-nicotinic acid]
35 | 4.7% | OCc1cnc(-c2ccc(-c3nc4c(Br)cc(Br)cc4[nH]3)cc2)c(Cl)c1 [Compound 33, {5-chloro-6-[4-(4,6-dibromo-1H-benzoimidazol-2-yl)-phenyl]-pyridin-3-yl}-methanol]
